The values that follow come from patent US20080311185A1, “Deregulated Genes and/or Processes in Inflammatory Arthritis” (priority 2005, published 2008).

Assay [1] has as its system HeLa cells. The following applies: Kulms et al, 2002; cited from earlier work.
The test system of assay [2] is Tg197 synovial fibroblasts. The assay is described as follows: Adhesion assay of Tg197 synovial fibroblasts after drug treatment. The conditions noted are these: drug treatment 2 h at 37° C., FIG. 8. In kind it is cell-based, mouse. The method, then: (§1) FIG. 8. Adhesion/Migration assays showing the effect of Lat-A on Tg197 actin-cytoskeleton properties.
Adhesion assays were performed on Cytometrix adhesion strips (Chemicon) coated with human fibronectin, vitronectin, laminin and collagen I, according to the manufacturer instructions.
(§2) Disruption of actin cytoskeleton was induced with 4 μg/ml of Latrunculin A (Sigma) for 2 h at 37° C. as previously described (Spector et al, 1989). As control of TNFα involvement in actin-cytoskeleton organisation 1 μg/ml of anti-TNF (Infliximab) was added on the cells for the same period of time.

In assay [3] the test system is Tg197 synovial fibroblasts. The assay is described as follows: Migration assay of Tg197 synovial fibroblasts after drug treatment. The conditions noted are these: drug treatment 2 h at 37° C., compare to Wt, FIG. 8. In kind it is cell-based, mouse. On the procedure:
as §1, §2

Assay [4] concerns Tg197 synovial fibroblasts. Nature of the assay: Proliferation assay of Tg197 synovial fibroblasts after drug treatment. In kind it is cell-based, mouse. The conditions noted are these: FIG. 9. On the procedure: FIG. 7. […] Mean averages of triplicates with mean background (adhesion to BSA) values subtracted. Representative experiment out of three (t-test; P<0.05). (C) DNA synthesis/proliferation assay in the presence or absence of 10% FBS, 48 h after treatment. Values represent [3H]Thymidine incorporation (×10^3). Mean average of triplicates (t test; P<0.05). (D) Assay of wound-healing treated with Mytomycin C for 2 h. Pictures were taken at Oh and 24 h after the wound (Oh not shown). (E) TNF cytotoxicity assay with cyclohexamide. After 24 h survival was determined using the crystal violet assay. (F) Apoptosis assay using 30-300 μM etoposide. (G) Apoptosis assay using 0.01-1 μM staurosporine.
as §2

Assay [5] relates to Tg197 synovial fibroblasts. Nature of the assay: Apoptosis assay using staurosporine as inducer of cell death. In kind it is cell-based, mouse. The conditions noted are these: FIG. 10. The method, then: Confluent mouse synovial fibroblasts were washed twice with phosphate-buffered saline (PBS) and placed in DMEM without serum for 24 h. The following day 1.5×10^4 cells were plated into each well of a 96-well flat-bottom plate (Costar, Corning Inc.) in 100 μl of media plus serum. After 24 h, cells were treated with 12.5-100 ng/ml TNFα plus 0.5-3 μg/ml cyclohexamide (CHX), 30-300 μM Etoposide and 0.01-1 μM Staurosporine, for 24 h at 37° C. overnight. Cell survival was determined using the crystal violet assay. The absorbance at 570 nm was determined on a microplate reader (SPECTRAmax PLUS^384, Molecular Devices, Sunnyvale, Calif., USA), as previously described (Aidinis et al, 2003). Results are expressed as the means±S.E. of one representative experiment performed in triplicate. Statistical analysis was performed using Student's t test, with a level of significance set at p<0.05.
as §2

Starred links: 1 amine or outer side, 2 acyl side, 3 side chain; linkers in the order of their positions; H or OH if unused. Positions of bridges follow the written chain, without caps; N, C: chain ends. Non-standard residues stand in square brackets, D forms with d. Residues, ends and D or L forms follow the SMILES beside them. Trp(2-yl) = O=C([C@H](Cc1c([*:3])[nH]c2ccccc12)N[*:1])[*:2]; Leu(4R-OH,5-OH) = C[C@](O)(CO)C[C@H](N)C(=O)O; cisHyp = O=C(O)[C@@H]1C[C@H](O)CN1

In the case of `C=C1[C@@H](C)[C@H]2[C@H](Cc3ccccc3)NC(=O)[C@]23[C@H](OC(C)=O)/C=C/[C@@](C)(O)C(=O)[C@@H](C)C/C=C/[C@H]3[C@@H]1O` [Cytochalasin D], the “apoptosis in HeLa cells” value in assay [1] is reported as “enhances apoptosis”.

Regarding `C/C1=C/C(=O)O[C@@H]2C[C@@H](CC[C@H](C)/C=C\C=C\CC1)O[C@@](O)([C@@H]1CSC(=O)N1)C2` [Lat-A, Latrunculin A], the “adhesion of TgSF's” value in assay [2] was “decreased adhesion”. Moreover, the “migration of TgSF's” value in assay [3] is given as “migration seems to be increased”. Also, in assay [4], the “proliferation levels of TgSFs” value is “decline lower even than the levels of WtSFs”. Moreover, the resistance to apoptosis entry in assay [5] is “decreased resistance to apoptosis at the levels of the Wt SFs”. Take `C[C@@H]1NC(=O)[C@H](C[C@@](C)(O)CO)NC(=O)[C@@H]2Cc3c([nH]c4ccccc34)SC[C@H](NC(=O)[C@@H]([C@H](C)O)NC1=O)C(=O)N1C[C@@H](O)C[C@H]1C(=O)N[C@@H](C)C(=O)N2` [phalloidin] (cyclo(A[dT]C[cisHyp]A[Trp(2-yl)][Leu(4R-OH,5-OH)]); thioether 3-6): in assay [1], the “apoptosis in HeLa cells” value is “does not affect apoptosis”.

With TNFα, the “proliferation levels of TgSFs” value in assay [4] is on record as “do not have an effect”. For the molecule “anti-TNF: anti-TNF (Infliximab), control of TNFα involvement in actin-cytoskeleton organisation”, the “adhesion of TgSF's” value in assay [2] is recorded as “do not show altered adhesion/migration properties”. For the same molecule, in assay [3], the “migration of TgSF's” value is “do not show altered adhesion/migration properties”.
